{"source": "patent US20060241145A1", "about": "“Piperidine derivative crystal, process for producing the same, and use” (priority 2005, published 2006)", "key": {"substance P receptor": {"target": "T1, substance P receptor (Homo sapiens, UniProt P25103)", "T1 construct": "The receptors were prepared from human lymphoblast cells (IM-9); endogenous in cells; host or cells: IM-9 human lymphoblast cells (membrane preparation)", "T1 sequence (P25103 whole entry)": "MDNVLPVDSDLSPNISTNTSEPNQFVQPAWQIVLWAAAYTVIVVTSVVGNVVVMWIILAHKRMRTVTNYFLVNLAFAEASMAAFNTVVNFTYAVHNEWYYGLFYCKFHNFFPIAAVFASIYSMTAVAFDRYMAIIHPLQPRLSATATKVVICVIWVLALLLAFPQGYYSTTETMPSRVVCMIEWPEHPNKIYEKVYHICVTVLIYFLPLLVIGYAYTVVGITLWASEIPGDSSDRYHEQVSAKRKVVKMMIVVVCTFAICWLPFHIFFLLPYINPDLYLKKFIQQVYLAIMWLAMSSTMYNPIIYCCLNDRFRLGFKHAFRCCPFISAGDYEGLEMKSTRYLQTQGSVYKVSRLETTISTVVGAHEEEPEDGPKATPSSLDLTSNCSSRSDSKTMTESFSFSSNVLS", "test": "Radioligand receptor binding inhibitory activity (binding inhibitory activity using receptor from human lymphoblast cells (IM-9))", "conditions": "125I-BHSP (substance P labeled with [125I]), receptor from IM-9 cells, 25° C. 30 min", "protocol": "Radioligand receptor binding inhibitory activity (Binding inhibitory activity using receptor from human lymphoblast cells (IM-9))\nThe method of M. A. Cascieri et al., “Molecular Pharmacology 42, p. 458 (1992)” was modified and used. The receptors were prepared from human lymphoblast cells (IM-9). IM-9 cells (2×10^5 cells/mL) were incubated for 3 days (one liter), which were then subjected to centrifuge for 5 min. at 500×G to obtain cell pellets. The obtained pellets were washed once with phosphate buffer (Flow Laboratories, CAT. No. 28-103-05), which were then homogenized using Polytron homogenizer (“Kinematika”, Germany) in 30 mL of 50 mM Tris-HCl buffer (pH 7.4) containing 120 mM sodium chloride, 5 mM potassium chloride, 2 μg/mL chymostatin, 40 μg/mL bacitracin, 5 μg/mL phosphoramidon, 0.5 mM phenylmethylsulfonyl fluoride, 1 mM ethylenediamine tetra-acetate, which was subjected to centrifuge at 40,000×G for 20 min. The residue was washed twice with 30 mL of the buffer, which was then preserved frozen (−80° C.) as a specimen of the receptors.\nThe specimen was suspended in a reaction buffer (50 mM Tris-HCl buffer (pH 7.4), 0.02% bovine serum albumin, 1 mM phenylmethylsulfonyl fluoride, 2 μg/mL chymostatin, 40 μg/mL bacitracin and 3 mM manganese chloride) to have protein in the concentration of 0.5 mg/mL of protein and 100 μL portion of the suspension was used in the reaction. After addition of the sample and ^125I-BHSP (0.46 KBq), the reaction was allowed to proceed in 0.2 mL of reaction buffer at 25° C. for 30 min. The amount of nonspecific binding was determined by adding substance P at a final concentration of 2×10^−6 M.\nAfter the reaction, using a cell harvester (290 PHD, Cambridge Technology, Inc, U.S.A.), the reaction solution was filterd through a glass filter (GF/B, Whatman, U.S.A.), which was immersed in 0.1% polyethyleneimine for 24 hrs. and dried. After washing three times with 250 μL of 50 mM Tris-HCl buffer (pH 7.4) containing 0.02% bovine serum albumin, the radioactivity remaining on the filter was determined with a gamma counter.\nThe antagonistic activity of each compound obtained in Examples was determined in terms of the concentration necessary to cause 50% inhibition (IC50 value) under the above-described conditions, and the results were shown in Table 9.\nThe radio ligand means substance P labeled with [^125I]."}, "[1]": {"system": "urethane anesthetized male guinea pigs", "test": "Bladder capacity increasing action in urethane anesthetized guinea pigs", "format": "in vivo, guinea pig", "conditions": "for changes in bladder capacity (vs. before administration, %) / changes in voiding pressure (vs. before administration, %): mean ± standard error; for effect on bladder capacity (in words) / effect on voiding pressure (in words): intravenous, summary of Table 10", "excerpt": "Bladder Capacity Increasing Activity of Tachykinin Receptor Antagonist, Oxybutynin and Tolterodine (Bladder Capacity Increasing Action in Urethane Anesthetized Guinea Pigs)\nA urinary frequency/urinary incontinence suppressing effect of a substance having antagonistic action for tachykinin receptors was shown in terms of the ability to increase bladder capacity in urethane anesthetized male guinea pigs and compared with that of oxybutynin and tolterodine, which are therapeutic drugs for overactive bladder. Using male guinea pig under anesthesia, after emptying the bladder by suction, saline was infused into the bladder at a constant rate (0.3 mL/min.) until voiding. This procedure was repeated to confirm stable bladder capacity (amount of saline injected before induction of voiding). After confirming a stable response, a compound dissolved in DMSO was intravenously administered and the action was measured. Changes in the bladder capacity and voiding pressure after drug administration were measured."}}, "note": "Counter-ions that a name gives are not always drawn."}
{"compound": "COc1ccc(-n2nnnc2C(F)(F)F)cc1CN[C@H]1CCN(C(=O)CNC(C)=O)C[C@H]1c1ccccc1", "note": "[Example 20, N-{2-[(3R,4S)-4-({2-methoxy-5-[5-(trifluoromethyl)-1H-tetrazol-1-yl]benzyl}amino)-3-phenylpiperidin-1-yl]-2-oxoethyl}acetamide]", "values": [{"measurement": "IC50", "setting": "substance P receptor", "value": 17, "unit": "pM"}, {"measurement": "changes in bladder capacity (vs. before administration, %)", "setting": "[1]; dose 0.01 mg/kg intravenously", "value": "5.8 ± 11.1", "unit": "%"}, {"measurement": "changes in voiding pressure (vs. before administration, %)", "setting": "[1]; dose 0.01 mg/kg intravenously", "value": "10.1 ± 8.4", "unit": "%"}, {"measurement": "changes in bladder capacity (vs. before administration, %)", "setting": "[1]; dose 0.03 mg/kg intravenously", "value": "3.0 ± 8.2", "unit": "%"}, {"measurement": "changes in voiding pressure (vs. before administration, %)", "setting": "[1]; dose 0.03 mg/kg intravenously", "value": "18.5 ± 18.5", "unit": "%"}, {"measurement": "changes in bladder capacity (vs. before administration, %)", "setting": "[1]; dose 0.1 mg/kg intravenously", "value": "42.9 ± 6.0", "unit": "%"}, {"measurement": "changes in voiding pressure (vs. before administration, %)", "setting": "[1]; dose 0.1 mg/kg intravenously", "value": "3.0 ± 8.0", "unit": "%"}, {"measurement": "changes in bladder capacity (vs. before administration, %)", "setting": "[1]; dose 0.3 mg/kg intravenously", "value": "71.2 ± 25.2", "unit": "%"}, {"measurement": "changes in voiding pressure (vs. before administration, %)", "setting": "[1]; dose 0.3 mg/kg intravenously", "value": "4.9 ± 11.0", "unit": "%"}, {"measurement": "effect on bladder capacity (in words)", "setting": "[1]", "value": "increased the bladder capacity in a dose-dependent manner"}, {"measurement": "effect on voiding pressure (in words)", "setting": "[1]", "value": "without affecting the voiding pressure"}]}
{"compound": "COc1ccc(-n2nnnc2C(F)(F)F)cc1CN[C@H]1CCN(C(=O)CNC=O)C[C@H]1c1ccccc1", "note": "[Example 5, {2-[(3R,4S)-4-({2-methoxy-5-[5-(trifluoromethyl)-1H-tetrazol-1-yl]benzyl}amino)-3-phenylpiperidin-1-yl]-2-oxoethyl}formamide]", "values": [{"measurement": "IC50", "setting": "substance P receptor", "value": 17, "unit": "pM"}]}
{"compound": "COc1ccc(-n2nnnc2C(F)(F)F)cc1CN[C@H]1CCN(C(=O)C(O)NC(C)=O)C[C@H]1c1ccccc1", "note": "(single isomer, unassigned) [Example 12]", "values": [{"measurement": "IC50", "setting": "substance P receptor", "value": 16, "unit": "pM"}]}
{"compound": "COc1ccc(-n2nnnc2C(F)(F)F)cc1CN[C@H]1CCN(C(C)=O)C[C@H]1c1ccccc1", "note": "[Example 6, (3R,4S)-1-acetyl-N-{2-methoxy-5-[5-(trifluoromethyl)-1H-tetrazol-1-yl]benzyl}-3-phenylpiperidine-4-amine monohydrochloride]", "values": [{"measurement": "IC50", "setting": "substance P receptor", "value": 26, "unit": "pM"}]}
{"compound": "COc1ccc(-n2nnnc2C(F)(F)F)cc1CN[C@H]1CCN(C(=O)CN2C(=O)CCC2=O)C[C@H]1c1ccccc1", "note": "[Example 7, 1-{2-[(3R,4S)-4-({2-methoxy-5-[5-(trifluoromethyl)-1H-tetrazol-1-yl]benzyl}amino)-3-phenylpiperidin-1-yl]-2-oxoethyl}pyrrolidine-2,5-dione monohydrochloride]", "values": [{"measurement": "IC50", "setting": "substance P receptor", "value": 15, "unit": "pM"}]}
{"compound": "COc1ccc(-n2nnnc2C(F)(F)F)cc1CN[C@H]1CCN(C(=O)C(O)NC(C)=O)C[C@H]1c1ccccc1", "note": "(single isomer, unassigned) [Example 13]", "values": [{"measurement": "IC50", "setting": "substance P receptor", "value": 62, "unit": "pM"}]}
{"compound": "Cc1ccc(O)c([C@H](CCN(C(C)C)C(C)C)c2ccccc2)c1", "note": "[tolterodine]", "values": [{"measurement": "changes in bladder capacity (vs. before administration, %)", "setting": "[1]; dose 1 mg/kg intravenously", "value": "−3.4 ± 4.4", "unit": "%"}, {"measurement": "changes in voiding pressure (vs. before administration, %)", "setting": "[1]; dose 1 mg/kg intravenously", "value": "0.1 ± 5.7", "unit": "%"}, {"measurement": "changes in bladder capacity (vs. before administration, %)", "setting": "[1]; dose 3 mg/kg intravenously", "value": "14.8 ± 7.6", "unit": "%"}, {"measurement": "changes in voiding pressure (vs. before administration, %)", "setting": "[1]; dose 3 mg/kg intravenously", "value": "−6.7 ± 6.5", "unit": "%"}, {"measurement": "changes in bladder capacity (vs. before administration, %)", "setting": "[1]; dose 10 mg/kg intravenously", "value": "31.7 ± 9.1", "unit": "%"}, {"measurement": "changes in voiding pressure (vs. before administration, %)", "setting": "[1]; dose 10 mg/kg intravenously", "value": "−15.5 ± 4.6", "unit": "%"}, {"measurement": "effect on bladder capacity (in words)", "setting": "[1]", "value": "significantly increased the bladder capacity"}, {"measurement": "effect on voiding pressure (in words)", "setting": "[1]", "value": "voiding pressure lowering action of tolterodine was significant"}]}
{"compound": "COc1ccc(-n2nnnc2C(F)(F)F)cc1CN[C@H]1CCN(C(=O)CS(C)(=O)=O)C[C@H]1c1ccccc1", "note": "[Example 8, (3R,4S)-N-{2-methoxy-5-[5-(trifluoromethyl)-1H-tetrazol-1-yl]benzyl}-1-[(methylsulfonyl)acetyl]-3-phenylpiperidine-4-amine monohydrochloride]", "values": [{"measurement": "IC50", "setting": "substance P receptor", "value": 22, "unit": "pM"}]}
{"compound": "CCN(CC)CC#CCOC(=O)C(O)(c1ccccc1)C1CCCCC1", "note": "(centres unmarked) [oxybutynin]", "values": [{"measurement": "changes in bladder capacity (vs. before administration, %)", "setting": "[1]; dose 0.1 mg/kg intravenously", "value": "1.8 ± 7.0", "unit": "%"}, {"measurement": "changes in voiding pressure (vs. before administration, %)", "setting": "[1]; dose 0.1 mg/kg intravenously", "value": "4.3 ± 7.5", "unit": "%"}, {"measurement": "changes in bladder capacity (vs. before administration, %)", "setting": "[1]; dose 0.3 mg/kg intravenously", "value": "19.3 ± 5.1", "unit": "%"}, {"measurement": "changes in voiding pressure (vs. before administration, %)", "setting": "[1]; dose 0.3 mg/kg intravenously", "value": "−11.6 ± 5.4", "unit": "%"}, {"measurement": "changes in bladder capacity (vs. before administration, %)", "setting": "[1]; dose 1 mg/kg intravenously", "value": "43.6 ± 7.7", "unit": "%"}, {"measurement": "changes in voiding pressure (vs. before administration, %)", "setting": "[1]; dose 1 mg/kg intravenously", "value": "−12.1 ± 8.8", "unit": "%"}, {"measurement": "changes in bladder capacity (vs. before administration, %)", "setting": "[1]; dose 3 mg/kg intravenously", "value": "36.8 ± 6.6", "unit": "%"}, {"measurement": "changes in voiding pressure (vs. before administration, %)", "setting": "[1]; dose 3 mg/kg intravenously", "value": "−6.0 ± 5.6", "unit": "%"}, {"measurement": "effect on bladder capacity (in words)", "setting": "[1]", "value": "significantly increased the bladder capacity"}, {"measurement": "effect on voiding pressure (in words)", "setting": "[1]", "value": "showed lower voiding pressure"}]}
{"compound": "COc1ccc(-n2nnnc2C(F)(F)F)cc1CN[C@H]1CCN(C(=O)C2CCN(S(C)(=O)=O)CC2)C[C@H]1c1ccccc1", "note": "[Example 11, (3R,4S)-N-{2-methoxy-5-[5-(trifluoromethyl)-1H-tetrazol-1-yl]benzyl}-1-{[1-(methylsulfonyl)piperidin-4-yl]carbonyl}-3-phenylpiperidine-4-amine monohydrochloride]", "values": [{"measurement": "IC50", "setting": "substance P receptor", "value": 21, "unit": "pM"}]}
{"compound": "CCC(=O)NCC(=O)N1CC[C@H](NCc2cc(-n3nnnc3C(F)(F)F)ccc2OC)[C@H](c2ccccc2)C1", "note": "[Example 9, N-{2-[(3R,4S)-4-({2-methoxy-5-[5-(trifluoromethyl)-1H-tetrazol-1-yl]benzyl}amino)-3-phenylpiperidin-1-yl]-2-oxoethyl}propanamide monohydrochloride]", "values": [{"measurement": "IC50", "setting": "substance P receptor", "value": 12, "unit": "pM"}]}
{"compound": "COc1ccc(-n2nnnc2C(F)(F)F)cc1CN[C@H]1CCN(C(=O)C2CCNCC2)C[C@H]1c1ccccc1", "note": "[Example 10, (3R,4S)-N-(2-methoxy-5-[5-(trifluoromethyl)-1H-tetrazol-1-yl]benzyl)-3-phenyl-1-(piperidin-4-ylcarbonyl)piperidine-4-amine dihydrochloride]", "values": [{"measurement": "IC50", "setting": "substance P receptor", "value": 16, "unit": "pM"}]}
